Data on one molecule can be found in PMC4033217, “Characterization of Novel PI3Kδ Inhibitors as Potential Therapeutics for SLE and Lupus Nephritis in Pre-Clinical Studies” (Frontiers in Immunology, 2014).

A short description of series [1]: Unbound plasma protein binding, mouse. Particulars: unbound fraction. In kind it is in vitro ADME. The source says: (§1) 36 CLint: intrinsic clearance in liver microsomes. h/m: human/mouse. Papp: apparent permeability. uPPB:
(§2) 37 unbound plasma protein binding. […]

Series [2] is described as follows: In vivo pharmacokinetics in mouse. Particulars: estimated.
Series [3] is described as follows: Intrinsic clearance in mouse liver microsomes. In kind it is in vitro ADME. Particulars: read-out: In vitro Clint.
Excerpt: as §1, §2

The next series relates to CD123+/CD303+ pDC cells. Nature of the series: Plasmacytoid dendritic cell IFN-α release assay (CpG ODN 2395). In kind it is cell-based, human. On the procedure: Plasmacytoid dendritic cells were isolated from PBMC of healthy volunteers by negative selection using pDC purification kit (Miltenyi Biotech, Bergisch Gladbach, Germany). […] IFN-α in the supernatants was measured from the culture supernatants with Verikine ELISA kit (PBL Assay Science, Piscataway, NJ, USA).

The next series has as its target PAK3 (Homo sapiens, UniProt O75914). Nature of the series: PAK3 kinase inhibition. In kind it is biochemical.
The test system of series [4] is pAkt in B220+ B cells, mouse whole blood. Description: Anti-IgD-induced pAkt in mouse whole blood (in vitro). In kind it is cell-based. The conditions noted are these: for IC50: B-cell, mouse whole blood in vitro, anti-IgD. The protocol:
Whole blood withdrawn from C57BL/6N mice (Charles River Laboratories, L’Arbresle, France) was incubated with PI3Kδ inhibitors for 30 min and stimulated with goat anti-mouse IgD antiserum (eBioscience, San Diego, CA, USA) for 7 min at 37°C. […] Cells were stained with rabbit anti-pAkt (Ser473) for 1 h followed by anti-IgD-FITC, anti-B220-PerCP-Cy5.5 (all BD Biosciences Pharmingen, San Diego, CA, USA), and donkey anti-rabbit IgG-Alexa647 (Invitrogen, Carlsbad, CA, USA) for 30 min at room temperature. B220^+IgD^+ cells were gated for pAkt analysis.

A short description of series [5]: Intrinsic clearance in human liver microsomes. In kind it is in vitro ADME. Particulars: read-out: In vitro Clint.
Excerpt: as §1, §2

Series [6] concerns pAkt in CD19+ B cells, human whole blood. Description: Anti-IgM-induced pAkt in human whole blood. In kind it is cell-based. The conditions noted are these: B-cell, 5 min, healthy donors. The protocol: Human whole blood was incubated with PI3Kδ inhibitors for 30 min and stimulated with 30 μg/ml anti-IgM (Jackson Immuno Research, West Grove, PA, USA) for 5 min at 37°C. […] Cell were stained with rabbit anti-pAkt (Ser473) followed by the Alexa647-conjugated F(ab′)2 goat anti-rabbit IgG (Invitrogen, Carlsbad, CA, USA), and anti-CD19-PE (BD Biosciences Pharmingen, San Diego, CA, USA). CD19^+ cells were gated for pAkt analysis.

Series [7] deals with CD69 on CD19+ cells, PBMCs from SLE patients. Description: Anti-IgM-induced CD69 up-regulation in PBMCs from SLE patients. In kind it is cell-based. Particulars: Homo sapiens, PBMC, 18 h, SLE patient PBMC, anti-IgM 18 h. On the procedure: Heparinized human blood or buffy-coat prepared from healthy donors was obtained from the “Center de transfusion sanguine” of Geneva (Switzerland). Cryopreserved PBMCs from SLE patients were obtained from Asterand (Detroit, MI, USA). […] Studies were approved by Merck Serono ethics committee.
(A) Peripheral blood from healthy donors were collected in heparinized tubes and stimulated with anti-IgM for 5 min. Intracellular pAkt gated on CD19^+ cells were analyzed by flow cytometry. […] CD69 up-regulation on CD19^+ cells were analyzed by flow cytometry. Mean fluorescent intensity (MFI) from basal and stimulated conditions without inhibitor were used as 100% of activity. […]

Where two headings read alike, the source gives them in different places.

Sequence of PAK3 (O75914 whole entry, species assumed): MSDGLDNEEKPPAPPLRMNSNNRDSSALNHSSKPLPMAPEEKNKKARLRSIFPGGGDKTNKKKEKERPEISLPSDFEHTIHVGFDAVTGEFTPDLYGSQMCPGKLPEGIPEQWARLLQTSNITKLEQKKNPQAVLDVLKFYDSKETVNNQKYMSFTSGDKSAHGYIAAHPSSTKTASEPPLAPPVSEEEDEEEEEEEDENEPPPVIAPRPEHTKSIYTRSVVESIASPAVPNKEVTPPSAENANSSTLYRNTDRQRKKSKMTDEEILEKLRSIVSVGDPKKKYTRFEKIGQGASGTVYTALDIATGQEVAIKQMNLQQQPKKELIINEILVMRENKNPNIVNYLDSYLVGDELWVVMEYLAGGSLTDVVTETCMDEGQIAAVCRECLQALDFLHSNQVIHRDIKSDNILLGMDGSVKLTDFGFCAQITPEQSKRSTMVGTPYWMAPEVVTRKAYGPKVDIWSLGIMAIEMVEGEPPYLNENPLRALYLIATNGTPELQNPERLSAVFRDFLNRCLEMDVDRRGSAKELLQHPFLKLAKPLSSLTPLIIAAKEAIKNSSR

With `O=C(c1nn([C@@H]2CCCN(CCN3CCOCC3)C2)c2c1CS(=O)(=O)c1cc(F)ccc1-2)N1CCOCC1` [MSC2364588, (R)-7-fluoro-3-(morpholin-4-ylcarbonyl)-1-[1-(2-morpholin-4-ylethyl)piperidin-3-yl]-1,4-dihydrothiochro-meno[4,3-c]pyrazole 5,5-dioxide], the uPPB % in series [1] came out at 65%. For the same molecule, the CL/F in [2] (C57BL/6N, plasma, po) is 25.1 L/h/kg. The half-life in [2] (C57BL/6N, plasma, po) was 36 min. The Ka in [2] was 1.6 h⁻¹. In addition, the V/F in [2] is recorded as 5.8 L/kg. The microsomal CLint in [3] came to 35 µL/min/mg; in series [5], 21 µL/min/mg. For the same molecule, in the series with CD123+/CD303+ pDC cells (CpG oligodeoxynucleotide-induced, TLR9-mediated), the “Suppression of IFNα production by pDCs” value is “suppressed”. Moreover, the IC50 in the series with CD123+/CD303+ pDC cells (Homo sapiens, Plasmacytoid dendritic cell, pDC, CpG ODN 2395 Type C, 18 h) is 0.105 µM; against PAK3, more than 10 µM; in series [4] (average, read-out: average IC50 for pAkt), 0.035 µM; in series [4] (representative experiment of Figure 5A, read-out: IC50 pAkt) it was 0.059 µM; in [6], 0.032 µM; in series [7] (another donor (Figure 4C, right)), 0.012 µM. The molecule also came in with an IC50 in series [7] (one donor (Figure 4C, left)) of 0.009 µM. The “Potency relative to MSC2360844” value in series [4] (mouse whole blood in vitro assay) is recorded as “approximately 10 folds”.
